Earlier results, collected in patent publication US20220175755A1, “METHODS OF TREATING TOBACCO SMOKING ADDICTION, AND TREATING NICOTINE AND TOBACCO SMOKING ADDICTION” (Pharma Unlimited B.V., priority 2017, published 2022).
Where two headings read alike, the source gives them in different places.

How the values were obtained:
[1] = system: number of cigarettes smoked by tobacco smokers; details: aerosol with an inhaler, dose of 400 μg CBD dissolved in absolute ethanol≈5%
[2] = transdermal patches
[3] = nicotine replacement therapy using chewing gum

| Compound | reduction of the number of cigarettes smoked [1] [%] | blood concentration after stopping chewing the gum (chewing gum, 90 minutes after stopping chewing) | peak nicotine absorption rate (chewing tobacco) | time of peak nicotine absorption rate (chewing tobacco) [min] | peak blood concentration [3] | peak nicotine absorption rate [3] | time for nicotine absorption rate to decline to zero [3] | time of peak nicotine absorption rate [3] [min] | time to peak blood concentration [3] | peak blood concentration (smoking cigarettes) | peak nicotine absorption rate (smoking cigarettes) | time of peak nicotine absorption rate (smoking cigarettes) | time to peak blood concentration (smoking cigarettes) | time for blood concentration to fall to 70% of the peak value (smoking cigarettes, after finishing smoking) | time after applying a patch at which blood nicotine levels start to rise [2] |
| --- | --- | --- | --- | --- | --- | --- | --- | --- | --- | --- | --- | --- | --- | --- | --- |
| C=C(C)[C@@H]1CCC(C)=C[C@H]1c1c(O)cc(CCCCC)cc1O [CBD] | 40 | – | – | – | – | – | – | – | – | – | – | – | – | – | – |
| CN1CCC[C@H]1c1cccnc1 [nicotine, 3-[(2S)-1-methylpyrrolidine-2-yl]pyridine] | – | about 7 ng/ml | around 145 μg/min | 5 | less than 9 ng/ml | around 65 μg/min | about 90 minutes | 10 | about 30 minutes | around 15 ng/ml | around 200 μg/min | about 5 minutes | about 10 minutes | about 20 minutes | about 30 minutes |
